The results in this text go back to PubChem BioAssay AID1259407 (Chemical Carcinogenesis Research Information System (CCRIS), 2018).

Entries after “also recorded” stand apart in the source; their conditions may differ. Activity calls are given as the source filed them. The rule behind the calls is not given here.

In the data set the test system is CCRIS mutagenicity, Ames/micronucleus/aberration tests. The experiment in a line: CCRIS mutagenicity studies.
[1] abbreviates: Test System: AMES SALMONELLA TYPHIMURIUM, Strain/Indicator: TA98, Metabolic Activation: RAT LIVER S-9, PHENOBARBITAL AND BETA-NAPHTHOFLAVONE, Method: PREINCUBATION
[2] abbreviates: Test System: AMES SALMONELLA TYPHIMURIUM, Strain/Indicator: TA100, Metabolic Activation: RAT LIVER S-9, PHENOBARBITAL AND BETA-NAPHTHOFLAVONE, Method: PREINCUBATION
[3] abbreviates: Test System: AMES SALMONELLA TYPHIMURIUM, Strain/Indicator: TA102, Metabolic Activation: NONE, Method: PREINCUBATION
Where [4] appears, read: Test System: AMES SALMONELLA TYPHIMURIUM, Strain/Indicator: TA1535, Metabolic Activation: NONE, Method: PREINCUBATION
Where [5] appears, read: Test System: AMES SALMONELLA TYPHIMURIUM, Strain/Indicator: TA1535, Metabolic Activation: RAT LIVER S-9, PHENOBARBITAL AND BETA-NAPHTHOFLAVONE, Method: PREINCUBATION
[6] abbreviates: Test System: AMES SALMONELLA TYPHIMURIUM, Strain/Indicator: TA1537, Metabolic Activation: NONE, Method: PREINCUBATION
[7] abbreviates: Test System: AMES SALMONELLA TYPHIMURIUM, Strain/Indicator: TA1537, Metabolic Activation: RAT LIVER S-9, PHENOBARBITAL AND BETA-NAPHTHOFLAVONE, Method: PREINCUBATION
Setting [8] is: Test System: E.COLI, Strain/Indicator: WP2UVRA/PKM101, Metabolic Activation: NONE, Method: PREINCUBATION
The mark [9] stands for this setting: Test System: E.COLI, Strain/Indicator: WP2UVRA/PKM101, Metabolic Activation: RAT LIVER S-9, PHENOBARBITAL AND BETA-NAPHTHOFLAVONE, Method: PREINCUBATION
Setting [10] is: Test System: AMES SALMONELLA TYPHIMURIUM, Strain/Indicator: TA98, Metabolic Activation: NONE, Method: PREINCUBATION
[11] abbreviates: Test System: AMES SALMONELLA TYPHIMURIUM, Strain/Indicator: TA100, Metabolic Activation: NONE, Method: PREINCUBATION

Turning to `CCC[N+](=O)[O-]`, the mutagenic call under setting [1] is “inactive; negative”; the mutagenic call (Test System: AMES SALMONELLA TYPHIMURIUM, Strain/Indicator: TA98, Metabolic Activation: RAT, LIVER, S-9, AROCLOR, Method: PREINCUBATION) is “inactive; negative”; the mutagenic call (Test System: AMES SALMONELLA TYPHIMURIUM, Strain/Indicator: TA98, Metabolic Activation: RAT, LIVER, S-9, CLOPHEN A-50, Method: PREINCUBATION) is “inactive; negative”; the mutagenic call (Test System: AMES SALMONELLA TYPHIMURIUM, Strain/Indicator: TA98, Metabolic Activation: RAT, LIVER, S-9, KANECHLOR 500, Method: PREINCUBATION) was “inactive; negative”; the mutagenic call under setting [2] is “inactive; negative”; the mutagenic call (Test System: AMES SALMONELLA TYPHIMURIUM, Strain/Indicator: TA100, Metabolic Activation: RAT, LIVER, S-9, AROCLOR, Method: PREINCUBATION) is “inactive; negative”. Also, the mutagenic call reads like this: (Test System: AMES SALMONELLA TYPHIMURIUM, Strain/Indicator: TA100, Metabolic Activation: RAT, LIVER, S-9, CLOPHEN A-50, Method: PREINCUBATION) “inactive; negative”; (Test System: AMES SALMONELLA TYPHIMURIUM, Strain/Indicator: TA100, Metabolic Activation: RAT, LIVER, S-9, KANECHLOR 500, Method: PREINCUBATION) “inactive; negative”; under setting [3], “inactive; negative”; (Test System: AMES SALMONELLA TYPHIMURIUM, Strain/Indicator: TA102, Metabolic Activation: RAT LIVER S-9, PHENOBARBITAL AND BETA-NAPHTHOFLAVONE, Method: PREINCUBATION) “inactive; negative”; (Test System: AMES SALMONELLA TYPHIMURIUM, Strain/Indicator: TA102, Metabolic Activation: RAT, LIVER, S-9, AROCLOR, Method: PREINCUBATION) “inactive; negative”; (Test System: AMES SALMONELLA TYPHIMURIUM, Strain/Indicator: TA104, Metabolic Activation: NONE, Method: PREINCUBATION) “inactive; negative”. In addition, the mutagenic call by setting is: (Test System: AMES SALMONELLA TYPHIMURIUM, Strain/Indicator: TA104, Metabolic Activation: RAT LIVER S-9, PHENOBARBITAL AND BETA-NAPHTHOFLAVONE, Method: PREINCUBATION) “inactive; negative”; under setting [4], “inactive; negative”; under setting [5], “inactive; negative”; under setting [6], “inactive; negative”; under setting [7], “inactive; negative”; (Test System: CHINESE HAMSTER V-79, Strain/Indicator: V-79/6-THIOGUANINE, Metabolic Activation: NONE, Method: STANDARD PLATE) “active; positive”. Further, the mutagenic call is, setting by setting: (Test System: E. COLI, Strain/Indicator: WP2 UVRA (PKM101), Metabolic Activation: NONE, Method: PREINCUBATION) “inactive; negative”; under setting [8], “inactive; negative”; under setting [9], “inactive; negative”; (Test System: E.COLI, Strain/Indicator: WP2UVRA, Metabolic Activation: NONE, Method: PREINCUBATION) “inactive; negative”; (Test System: E.COLI, Strain/Indicator: WP2UVRA, Metabolic Activation: RAT LIVER S-9, PHENOBARBITAL AND BETA-NAPHTHOFLAVONE, Method: PREINCUBATION) “inactive; negative”; (Test System: UDS RAT HEPATOCYTES, Strain/Indicator: THY INCORP, Metabolic Activation: NONE) “inactive; negative”. Under “Test System: UDS RODENT HEPATOCYTES, Strain/Indicator: THY INCORP (NON-S-PHASE), Metabolic Activation: NONE, Method: PREINCUBATION”, the mutagenic call is “inactive; negative”.

In the case of `CC(C)(C)C1=CC(=O)C=C(C2=CC(=O)C=C(C(C)(C)C)C2=O)C1=O`, the mutagenic call runs as follows: under setting [10], “active; positive”; under setting [11], “active; positive”.

`CCCCCCC(=O)OCC`: the mutagenic call (Test System: AMES SALMONELLA TYPHIMURIUM, Strain/Indicator: TA97, Metabolic Activation: NONE, Method: PREINCUBATION) was “inactive; negative”; the mutagenic call (Test System: AMES SALMONELLA TYPHIMURIUM, Strain/Indicator: TA97, Metabolic Activation: RAT, LIVER, S-9, AROCLOR 1254, Method: PREINCUBATION) was “inactive; negative”; the mutagenic call under setting [3] was “inactive; negative”; the mutagenic call (Test System: AMES SALMONELLA TYPHIMURIUM, Strain/Indicator: TA102, Metabolic Activation: RAT, LIVER, S-9, AROCLOR 1254, Method: PREINCUBATION) is “inactive; negative”.

In the case of `Brc1c(Br)c(Br)c(Oc2c(Br)c(Br)c(Br)c(Br)c2Br)c(Br)c1Br`, the mutagenic call was “inactive; negative; precipitation occurred at 160 and 500 ug/ml; also recorded: inactive; negative; precipitation occurred at 250 and 500 ug/ml” (End Point: IN VITRO CHROMOSOMAL ABERRATIONS, Test System: CHO CELLS, Metabolic Activation: NONE); “inactive; negative; precipitation occurred at 250 and 500 ug/ml” (End Point: IN VITRO CHROMOSOMAL ABERRATIONS, Test System: CHO CELLS, Metabolic Activation: RAT, LIVER, S-9, AROCLOR 1254); “inactive; negative” (Test System: AMES SALMONELLA TYPHIMURIUM, Strain/Indicator: TA98, Metabolic Activation: HAMSTER, LIVER, S-9, AROCLOR 1254, Method: PREINCUBATION); “inactive; negative” under setting [10]; “inactive; negative” under setting [1]; “inactive; negative” (Test System: AMES SALMONELLA TYPHIMURIUM, Strain/Indicator: TA98, Metabolic Activation: RAT, LIVER, S-9, AROCLOR 1254, Method: PREINCUBATION). For the same compound, the mutagenic call (Test System: AMES SALMONELLA TYPHIMURIUM, Strain/Indicator: TA100, Metabolic Activation: HAMSTER, LIVER, S-9, AROCLOR 1254, Method: PREINCUBATION) was “inactive; negative”; the mutagenic call under setting [11] is “inactive; negative”; the mutagenic call under setting [2] is “inactive; negative”; the mutagenic call (Test System: AMES SALMONELLA TYPHIMURIUM, Strain/Indicator: TA100, Metabolic Activation: RAT, LIVER, S-9, AROCLOR 1254, Method: PREINCUBATION) was “inactive; negative”; the mutagenic call (Test System: AMES SALMONELLA TYPHIMURIUM, Strain/Indicator: TA1535, Metabolic Activation: HAMSTER, LIVER, S-9, AROCLOR 1254, Method: PREINCUBATION) is “inactive; negative”; the mutagenic call under setting [4] was “inactive; negative”. The mutagenic call reads like this: under setting [5], “inactive; negative”; (Test System: AMES SALMONELLA TYPHIMURIUM, Strain/Indicator: TA1535, Metabolic Activation: RAT, LIVER, S-9, AROCLOR 1254, Method: PREINCUBATION) “inactive; negative”; (Test System: AMES SALMONELLA TYPHIMURIUM, Strain/Indicator: TA1537, Metabolic Activation: HAMSTER, LIVER, S-9, AROCLOR 1254, Method: PREINCUBATION) “inactive; negative”; under setting [6], “inactive; negative”; under setting [7], “inactive; negative”; (Test System: AMES SALMONELLA TYPHIMURIUM, Strain/Indicator: TA1537, Metabolic Activation: RAT, LIVER, S-9, AROCLOR 1254, Method: PREINCUBATION) “inactive; negative”. For the same compound, the mutagenic call is “inactive; negative” (Test System: CHO/HGPRT, Strain/Indicator: CHO/GIEMSA, Metabolic Activation: NONE, Method: STANDARD PLATE); “inactive; negative” (Test System: CHO/HGPRT, Strain/Indicator: CHO/GIEMSA, Metabolic Activation: RAT, LIVER, S-9, AROCLOR 1254, Method: STANDARD PLATE); “inactive; negative” under setting [8]; “inactive; negative” under setting [9]; “inactive; negative” (Test System: MOUSE LYMPHOMA, Strain/Indicator: L5178Y (TK+/TK-), Metabolic Activation: NONE, Method: SUSPENSION/PLATE); “inactive; negative” (Test System: MOUSE LYMPHOMA, Strain/Indicator: L5178Y (TK+/TK-), Metabolic Activation: RAT, LIVER, S-9, AROCLOR 1254, Method: SUSPENSION/PLATE).
